# Experimental data from patent publication US20230293526A1, “METHOD FOR TREATING CANCER WITH A REVERSE TRANSCRIPTASE INHIBITOR” (PrimeFour Therapeutics, Inc., priority 2020, published 2023).
# Columns and labels:
# Assay type in all cases: cell-based
# CASKI = assay: Cell proliferation Ex.3; settings: Homo sapiens, Ca-Ski
# Procedure: (§1) A dose response relationship on cell proliferation was assessed for Compound 13 on 140 tumor cell lines. […] Cells were cultured in the appropriate media. For the assays, cells were seeded in white cell culture-treated flat and clear bottom multiwell plates and incubated at 37° C. overnight before compound was added. […] dependent on the medium, cell plates were equilibrated to room temperature for one hour, CellTiterGlo reagent (Promega) was added and luminescence was measured approximately an hour later using a luminometer. Raw data were converted into percent cell viability relative to the high and low control, which were set to 10000 and 000, respectively.
# MINO = assay: Cell proliferation Ex.3; settings: Homo sapiens
# Procedure: as §1
# SKNSH = assay: Cell proliferation Ex.3; settings: Homo sapiens, SK-N-SH
# Procedure: as §1
# PBMC = assay: Cell proliferation Ex.3
# BT-20 = assay: Cell proliferation CellTiterGlo Ex.2; settings: Homo sapiens; BT-20 (Breast), 72 h
# Procedure: (§2) A dose response relationship on cell proliferation was assessed for Compound 13 on 140 tumor cell lines. Briefly, compound treatment of cells started one day after seeding with a final DMSO concentration of 0.100, and was performed by nanodrop-dispensing using a Tecan Dispenser. 0.10% DMSO (solvent) and Staurosporine (10 μM) served as high control (10000 viability) and low control (000 viability), respectively. Compound 13 was tested at 10, 3, 1, 0.3, 0.1, 0.03, 0.01, and 0.003 μM.
# (§3) Cells were cultured in the appropriate media. For the assays, cells were seeded in white cell culture-treated flat and clear bottom multiwell plates and incubated at 37° C. overnight before compound was added. After incubation for 72 h at 37° C. at 5% or 10% CO2 dependent on the medium, cell plates were equilibrated to room temperature for one hour, CellTiterGlo reagent (Promega) was added and luminescence was measured approximately an hour later using a luminometer.
# (§4) Raw data were converted into percent cell viability relative to the high and low control, which were set to 10000 and 000, respectively.
# DLD-1 = assay: Cell proliferation CellTiterGlo Ex.2; settings: Homo sapiens; DLD-1 (Colon), 72 h
# Procedure: as §2, §3, §4
# DV90 = assay: Cell proliferation CellTiterGlo Ex.2; settings: Homo sapiens, DV-90; DV90 (Lung), 72 h
# Procedure: as §2, §3, §4
# Detroit562 = assay: Cell proliferation CellTiterGlo Ex.2; settings: Homo sapiens, Detroit 562; Detroit562 (Head/Neck), 72 h
# Procedure: as §2, §3, §4
# EFM-192A = assay: Cell proliferation CellTiterGlo Ex.2; settings: EFM-192A (Breast), 72 h
# Procedure: as §2, §3, §4
# EPLC-272H = assay: Cell proliferation CellTiterGlo Ex.2; settings: Homo sapiens; EPLC-272H (Lung), 72 h
# Procedure: as §2, §3, §4
# Hs 746T = assay: Cell proliferation CellTiterGlo Ex.2; settings: Homo sapiens, Hs746T; Hs 746T (Stomach), 72 h
# Procedure: as §2, §3, §4
# J82 = assay: Cell proliferation CellTiterGlo Ex.2; settings: Homo sapiens; J82 (Bladder), 72 h
# Procedure: as §2, §3, §4
# KARPAS 299 = assay: Cell proliferation CellTiterGlo Ex.2; settings: Homo sapiens; KARPAS 299 (Blood), 72 h
# Procedure: as §2, §3, §4
# LN229 = assay: Cell proliferation CellTiterGlo Ex.2; settings: Homo sapiens, LN-229; LN229 (Brain), 72 h
# Procedure: as §2, §3, §4
# LOU-NH91 = assay: Cell proliferation CellTiterGlo Ex.2; settings: LOU-NH91 (Lung), 72 h
# Procedure: as §2, §3, §4
# MCF-7 = assay: Cell proliferation CellTiterGlo Ex.2; settings: Homo sapiens, MCF7; MCF-7 (Breast), 72 h
# Procedure: as §2, §3, §4
# MDA-MB-468 = assay: Cell proliferation CellTiterGlo Ex.2; settings: Homo sapiens; MDA-MB-468 (Breast), 72 h
# Procedure: as §2, §3, §4
# NCI-H1563 = assay: Cell proliferation CellTiterGlo Ex.2; settings: Homo sapiens; NCI-H1563 (Lung), 72 h
# Procedure: as §2, §3, §4
# NCI-H1838 = assay: Cell proliferation CellTiterGlo Ex.2; settings: Homo sapiens; NCI-H1838 (Lung), 72 h
# Procedure: as §2, §3, §4
# NCI-H441 = assay: Cell proliferation CellTiterGlo Ex.2; settings: Homo sapiens; NCI-H441 (Lung), 72 h
# Procedure: as §2, §3, §4
# P31/FUJ = assay: Cell proliferation CellTiterGlo Ex.2; settings: Homo sapiens; P31/FUJ (Blood), 72 h
# Procedure: as §2, §3, §4
# RKO = assay: Cell proliferation CellTiterGlo Ex.2; settings: Homo sapiens; RKO (Colon), 72 h
# Procedure: as §2, §3, §4
# RPMI 8226 = assay: Cell proliferation CellTiterGlo Ex.2; settings: Homo sapiens; RPMI 8226 (Blood), 72 h
# Procedure: as §2, §3, §4
# SK-MEL-3 = assay: Cell proliferation CellTiterGlo Ex.2; settings: Homo sapiens, SK-MEL3; SK-MEL-3 (Skin), 72 h
# Procedure: as §2, §3, §4
# SK-N-FI = assay: Cell proliferation CellTiterGlo Ex.2; settings: Homo sapiens; SK-N-FI (Brain), 72 h
# Procedure: as §2, §3, §4
# SK-N-SH = assay: Cell proliferation CellTiterGlo Ex.2; settings: Homo sapiens; SK-N-SH (Brain), 72 h
# Procedure: as §2, §3, §4
# SW948 = assay: Cell proliferation CellTiterGlo Ex.2; settings: Homo sapiens; SW948 (Colon), 72 h
# Procedure: as §2, §3, §4
# Saos-2 EC = assay: Cell proliferation CellTiterGlo Ex.2; settings: Homo sapiens; Saos-2 EC (Bone), 72 h
# Procedure: as §2, §3, §4
# U-266 = assay: Cell proliferation CellTiterGlo Ex.2; settings: Homo sapiens; U-266 (Blood), 72 h
# Procedure: as §2, §3, §4
smiles,measurement,setting,value
C#C[C@]1(CO)O[C@@H](n2cc(F)c(N)nc2=O)C[C@@H]1O [compound 9],IC50,CASKI; 72 h,> 10 µM
same,IC50,CASKI; 120 h,> 10 µM
same,IC50,CASKI; 168 h,> 10 µM
same,IC50,MINO; 72 h,0.34 µM
same,IC50,MINO; 120 h,0.049 µM
same,IC50,MINO; 168 h,0.065 µM
same,IC50,SKNSH; 72 h,> 10 µM
same,IC50,SKNSH; 120 h,> 10 µM
same,IC50,SKNSH; 168 h,> 10 µM
same,IC50,PBMC; 72 h,> 10 µM
same,IC50,PBMC; 120 h,> 10 µM
same,IC50,PBMC; 168 h,> 10 µM
C#C[C@]1(CO)O[C@@H](n2cnc3c(=O)[nH]c(N)nc32)C[C@@H]1O [compound 13],IC50,BT-20,> 10 µM
same,IC50,DLD-1,> 10 µM
same,IC50,DV90,1.59 µM
same,IC50,Detroit562,4.79 µM
same,IC50,EFM-192A,> 10 µM
same,IC50,EPLC-272H,6.63 µM
same,IC50,Hs 746T,5.39 µM
same,IC50,J82,5.73 µM
same,IC50,KARPAS 299,4.07 µM
same,IC50,LN229,2.23 µM
same,IC50,LOU-NH91,> 10 µM
same,IC50,MCF-7,> 10 µM
same,IC50,MDA-MB-468,> 10 µM
same,IC50,NCI-H1563,> 10 µM
same,IC50,NCI-H1838,7.53 µM
same,IC50,NCI-H441,3.64 µM
same,IC50,P31/FUJ,0.4 µM
same,IC50,RKO,4.51 µM
same,IC50,RPMI 8226,> 10 µM
same,IC50,SK-MEL-3,> 10 µM
same,IC50,SK-N-FI,> 10 µM
same,IC50,SK-N-SH,6.47 µM
same,IC50,SW948,5.02 µM
same,IC50,Saos-2 EC,3.99 µM
same,IC50,U-266,> 10 µM
